# According to patent US11427567B2, “Imidazolyl pyrimidinylamine compounds as CDK2 inhibitors” (Incyte Corporation, priority 2019, dated 2022):
# Molecular target: CDK2/Cyclin E1 (Homo sapiens (Human), UniProt P24941)
# Assay: CDK2/Cyclin E1 HTRF enzyme activity assay (Example A)
# Assay type: biochemical
# Conditions: 1 mM ATP
# Procedure: Assays were conducted in white 384-well polystyrene plates in a final reaction volume of 8 μL. […] HTRF signals were read after 1 hour at room temperature on a PHERAstar FS plate reader (BMG Labtech). Data was analyzed with IDBS XLFit and GraphPad Prism 5.0 software using a three or four parameter dose response curve to determine IC50 for each compound.
row,IC50 [nM],Structure (SMILES)
1,≤ 50,"Cn1cc(S(=O)(=O)N2CCC(Nc3ncc(C(F)(F)F)c(-c4cn(CC(F)F)cn4)n3)CC2)cn1 [Example 334, 4-(1-(2,2-Difluoroethyl)-1H-imidazol-4-yl)-N-(1-((1-methyl-1H-pyrazol-4-yl)sulfonyl)piperidin-4-yl)-5-(trifluoromethyl)pyrimidin-2-amine]"
2,≤ 50,"Cc1nc(CN2CC(C)C2)ccc1-n1cnc(-c2nc(NC3CCN(S(C)(=O)=O)CC3)ncc2C(F)(F)F)c1 [Example 264, 4-(1-(2-Methyl-6-((3-methylazetidin-1-yl)methyl)pyridin-3-yl)-1H-imidazol-4-yl)-N-(1-(methylsulfonyl)piperidin-4-yl)-5-(trifluoromethyl)pyrimidin-2-amine]"
3,≤ 50,"CS(=O)(=O)N1CCC(Nc2ncc(C#N)c(-c3cn(-c4ccc(C#N)cc4Cl)cn3)n2)CC1 [Example 28, 4-(1-(2-Chloro-4-cyanophenyl)-1H-imidazol-4-yl)-2-((1-(methylsulfonyl)piperidin-4-yl)amino)pyrimidine-5-carbonitrile]"
4,≤ 50,"CS(=O)(=O)N1CCC(Nc2ncc(C(F)(F)F)c(-c3cn(-c4ccccc4C#N)cn3)n2)CC1 [Example 31, 2-(4-(2-((1-(Methylsulfonyl)piperidin-4-yl)amino)-5-(trifluoromethyl)pyrimidin-4-yl)-1H-imidazol-1-yl)benzonitrile]"
5,≤ 50,"CS(=O)(=O)N1CCC(Nc2ncc(C(F)(F)F)c(-c3cn(-c4ccc(Cn5ncnn5)cc4Cl)cn3)n2)CC1 [Example 243, 4-(1-(4-((2H-Tetrazol-2-yl)methyl)-2-chlorophenyl)-1H-imidazol-4-yl)-N-(1-(methylsulfonyl)piperidin-4-yl)-5-(trifluoromethyl)pyrimidin-2-amine]"
6,≤ 50,"CCN(CC)Cc1ccc(-n2cc(-c3nc(NC4CCN(S(C)(=O)=O)CC4)ncc3C(F)(F)F)nc2C)c(F)c1 [Example 357, 4-(1-(4-((Diethylamino)methyl)-2-fluorophenyl)-2-methyl-1H-imidazol-4-yl)-N-(1-(methylsulfonyl)piperidin-4-yl)-5-(trifluoromethyl)pyrimidin-2-amine]"
7,≤ 50,"Cc1nc(-c2nc(NC3CCN(S(C)(=O)=O)CC3)ncc2C(F)(F)F)cn1-c1ccc(CN2CC(C)C2)cc1F [Example 283, 4-(1-(2-Fluoro-4-((3-methylazetidin-1-yl)methyl)phenyl)-2-methyl-1H-imidazol-4-yl)-N-(1-(methylsulfonyl)piperidin-4-yl)-5-(trifluoromethyl)pyrimidin-2-amine]"
8,≤ 50,"Cc1cc(CN2CCC2)ccc1-n1cc(-c2nc(NC3CCN(S(C)(=O)=O)CC3)ncc2C(F)(F)F)nc1C [Example 285, 4-(1-(4-(Azetidin-1-ylmethyl)-2-methylphenyl)-2-methyl-1H-imidazol-4-yl)-N-(1-(methylsulfonyl)piperidin-4-yl)-5-(trifluoromethyl)pyrimidin-2-amine]"
9,≤ 50,"Cc1nc(-c2nc(NC3CCN(S(C)(=O)=O)CC3)ncc2C(F)(F)F)cn1-c1ccc(C2CNC2)cc1F [Example 160, 4-(1-(4-(Azetidin-3-yl)-2-fluorophenyl)-2-methyl-1H-imidazol-4-yl)-N-(1-(methylsulfonyl)piperidin-4-yl)-5-(trifluoromethyl)pyrimidin-2-amine]"
10,≤ 50,"CS(=O)(=O)N1CCC(Nc2ncc(C(F)(F)F)c(-c3cn(-c4ccc(CN5CCCC5=O)cc4Cl)cn3)n2)CC1 [Example 454, 1-(3-Chloro-4-(4-(2-((1-(methylsulfonyl)piperidin-4-yl)amino)-5-(trifluoromethyl)pyrimidin-4-yl)-1H-imidazol-1-yl)benzyl)pyrrolidin-2-one]"
11,≤ 50,"CS(=O)(=O)N1CCC(Nc2ncc(C(F)(F)F)c(-c3cn(-c4cnccc4C(F)(F)F)cn3)n2)CC1 [Example 66, N-(1-(Methylsulfonyl)piperidin-4-yl)-5-(trifluoromethyl)-4-(1-(4-(trifluoromethyl)pyridin-3-yl)-1H-imidazol-4-yl)pyrimidin-2-amine]"
12,≤ 50,"C[C@@H]1CN(S(C)(=O)=O)CC[C@@H]1Nc1ncc(C(F)(F)F)c(-c2cn(-c3ccc(CO)cc3Cl)cn2)n1 [Example 234, (3-Chloro-4-(4-(2-(((3R,4S)-3-methyl-1-(methylsulfonyl)piperidin-4-yl)amino)-5-(trifluoromethyl)pyrimidin-4-yl)-1H-imidazol-1-yl)phenyl)methanol]"
13,≤ 50,"Cc1nc(C#N)ccc1-n1cnc(-c2nc(NC3CCN(S(C)(=O)=O)CC3)ncc2C(F)(F)F)c1 [Example 33, 6-Methyl-5-(4-(2-((1-(methylsulfonyl)piperidin-4-yl)amino)-5-(trifluoromethyl)pyrimidin-4-yl)-1H-imidazol-1-yl)picolinonitrile]"
14,≤ 50,"CCNCCc1cccc(-n2cnc(-c3nc(NC4CCN(S(C)(=O)=O)CC4)ncc3C(F)(F)F)c2)c1Cl [Example 466, 4-(1-(2-Chloro-3-(2-(ethylamino)ethyl)phenyl)-1H-imidazol-4-yl)-N-(1-(methylsulfonyl)piperidin-4-yl)-5-(trifluoromethyl)pyrimidin-2-amine]"
15,≤ 50,"Cc1nccc(-n2cnc(-c3nc(N[C@H]4CCN(S(C)(=O)=O)C[C@H]4F)ncc3C(F)(F)F)c2)c1Cl [Example 301, 4-(1-(3-Chloro-2-methylpyridin-4-yl)-1H-imidazol-4-yl)-N-((3R,4S)-3-fluoro-1-(methylsulfonyl)piperidin-4-yl)-5-(trifluoromethyl)pyrimidin-2-amine]"
16,≤ 50,"O=S(=O)(C1CC1)N1CC[C@H](Nc2ncc(C(F)(F)F)c(-c3cn(CC(F)F)cn3)n2)[C@H](F)C1 [Example 329, N-((3R,4S)-1-(Cyclopropylsulfonyl)-3-fluoropiperidin-4-yl)-4-(1-(2,2-difluoroethyl)-1H-imidazol-4-yl)-5-(trifluoromethyl)pyrimidin-2-amine]"
17,≤ 50,"Cc1nc(-c2nc(NC3CCN(S(C)(=O)=O)CC3)ncc2C(F)(F)F)cn1-c1ccc(C2CN(C[C@@H](C)O)C2)cc1F [Example 421, (R)-1-(3-(3-Fluoro-4-(2-methyl-4-(2-((1-(methylsulfonyl)piperidin-4-yl)amino)-5-(trifluoromethyl)pyrimidin-4-yl)-1H-imidazol-1-yl)phenyl)azetidin-1-yl)propan-2-ol]"
18,≤ 50,"CNC(C)c1cccc(-n2cnc(-c3nc(NC4CCN(S(C)(=O)=O)CC4)ncc3C(F)(F)F)c2)c1Cl (stereo not drawn) [Example 377, 4-(1-(2-Chloro-3-(1-(methylamino)ethyl)phe-nyl)-1H-imidazol-4-yl)-N-(1-(methylsulfonyl)piperidin-4-yl)-5-(trifluoromethyl)pyrimi-din-2-amine]"
19,≤ 50,"CS(=O)(=O)N1CC[C@H](Nc2ncc(C(F)(F)F)c(-c3cn(-c4cccc(C#N)c4C(F)(F)F)cn3)n2)[C@H](F)C1 [Example 69, 3-(4-(2-(((3R,4S)-3-Fluoro-1-(methylsulfonyl)piperidin-4-yl)amino)-5-(trifluoromethyl)pyrimidin-4-yl)-1H-imidazol-1-yl)-2-(trifluoromethyl)benzonitrile]"
20,≤ 50,"CCN1CCN(c2nccc(-n3cnc(-c4nc(NC5CCN(S(C)(=O)=O)CC5)ncc4C(F)(F)F)c3)c2Cl)CC1 [Example 318, 4-(1-(3-Chloro-2-(4-ethylpiperazin-1-yl)pyridin-4-yl)-1H-imidazol-4-yl)-N-(1-(methylsulfonyl)piperidin-4-yl)-5-(trifluoromethyl)pyrimidin-2-amine]"
21,≤ 50,"COc1ccc(-n2cnc(-c3nc(N[C@H]4CCN(S(C)(=O)=O)C[C@H]4F)ncc3C(F)(F)F)c2)c(C#N)n1 [Example 52, 3-(4-(2-(((3R,4S)-3-Fluoro-1-(methylsulfonyl)piperidin-4-yl)amino)-5-(trifluoromethyl)pyrimidin-4-yl)-1H-imidazol-1-yl)-6-methoxypicolinonitrile]"
22,≤ 50,"Cn1ncnc1-c1ccc(-n2cnc(-c3nc(NC4CCN(S(C)(=O)=O)CC4)ncc3C(F)(F)F)c2)c(C#N)c1 [Example 125, 5-(1-Methyl-1H-1,2,4-triazol-5-yl)-2-(4-(2-((1-(methylsulfonyl)piperidin-4-yl)amino)-5-(trifluoromethyl)pyrimidin-4-yl)-1H-imidazol-1-yl)benzonitrile]"
23,≤ 50,"Cc1nc(CN2CCCCC2)ccc1-n1cnc(-c2nc(NC3CCN(S(C)(=O)=O)CC3)ncc2C(F)(F)F)c1 [Example 382, 4-(1-(2-Methyl-6-(piperidin-1-ylmethyl)pyridin-3-yl)-1H-imidazol-4-yl)-N-(1-(methylsulfonyl)piperidin-4-yl)-5-(trifluoromethyl)pyrimidin-2-amine]"
24,≤ 50,"CS(=O)(=O)N1CCC(Nc2ncc(C(F)(F)F)c(-c3cn(-c4ccc(CCN5CCCC5)cc4C#N)cn3)n2)CC1 [Example 434, 2-(4-(2-((1-(Methylsulfonyl)piperidin-4-yl)amino)-5-(trifluoromethyl)pyrimidin-4-yl)-1H-imidazol-1-yl)-5-(2-(pyrrolidin-1-yl)ethyl)benzonitrile]"
25,≤ 50,"Cc1ccc(-n2cnc(-c3nc(NC4CCN(S(C)(=O)=O)CC4)ncc3C(F)(F)F)c2)c(C(F)(F)F)n1 [Example 44, 4-(1-(6-Methyl-2-(trifluoromethyl)pyridin-3-yl)-1H-imidazol-4-yl)-N-(1-(methylsulfonyl)piperidin-4-yl)-5-(trifluoromethyl)pyrimidin-2-amine]"
26,≤ 50,"Cc1c(-n2cnc(-c3nc(NC4CCN(S(C)(=O)=O)CC4)ncc3C(F)(F)F)c2)ccnc1C#N [Example 292, 3-Methyl-4-(4-(2-((1-(methylsulfonyl)piperidin-4-yl)amino)-5-(trifluoromethyl)pyrimidin-4-yl)-1H-imidazol-1-yl)picolinonitrile]"
27,≤ 50,"CS(=O)(=O)N1CCC(Nc2ncc(C(F)(F)F)c(-c3cn(-c4ccc(CN5CCC5=O)cc4Cl)cn3)n2)CC1 [Example 452, 1-(3-Chloro-4-(4-(2-((1-(methylsulfonyl)piperidin-4-yl)amino)-5-(trifluoromethyl)pyrimidin-4-yl)-1H-imidazol-1-yl)benzyl)azetidin-2-one]"
